Where a name gives a salt, the structure may show the parent alone. Read-outs that look alike come from different tables or passages of the source.
Legend:
[1] = system: fibrin- and LPS-induced microglia activation; assay: cells; format: cell-based, rat
[2] = system: LPS-induced microglia activation; assay: Image-based assay of LPS-induced microglia activation (HTS and dose response); format: cell-based, rat; conditions: for inhibition at 10 µM: Rattus norvegicus, Microglia, read-out: LPS % inhibition
[3] = system: fibrin-induced microglia activation; assay: Image-based assay of fibrin-induced microglia activation (HTS and dose response); format: cell-based, rat; conditions: primary microglia HTS, fibrin stimulation; for inhibition at 10 µM: Rattus norvegicus, Microglia, read-out: Fibrin % inhibition
primary rat microglia [4] = assay: Cell toxicity (dead cells, size <150 μm2) in coated fibrin (cFib) assay; conditions: primary microglia HTS;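 note: share of dead cells sized under 150 µm2 at 10 µM in fibrin-stimulated microglia HTS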
primary rat microglia [5] = conditions: rat
[6] = classification by fibrin and LPS inhibition in HTS
[7] = cell size >800 μm2 as marker of activation
[8] = fibrin stimulation, cell size <150 μm2 as marker of toxicity
[9] = classification by fibrin and LPS inhibition, HTS at 10 μM
[10] = fibrin assay, dead cells (size <150 μm2), compounds at 10 μM
[11] = primary microglia HTS, LPS stimulation, compounds at 10 μM
[12] = quadrant by fibrin and LPS inhibition, HTS at 10 μM
[13] = fibrin assay, dead cells (size <150 μm2)

SMILES	Quadrant (FIG. 5b) [1, 6]	inhibition at 10 µM ([2]; 48 h) [%]	inhibition at 10 µM [3, 7] [%]	Fibrin % cell toxicity (primary rat microglia [4]; [8]) [%]	LPS % cell toxicity (primary rat microglia [5]) [%]	Quadrant (FIG. 5b) [1, 9]	LPS % inhibition ([2]; primary microglia HTS, LPS stimulation, compounds at 10 μM, 10 µM) [%]	Fibrin % inhibition ([3]; compounds at 10 μM, 10 µM) [%]	Fibrin % cell toxicity (primary rat microglia [4]; [10]) [%]	inhibition at 10 µM [2, 11] [%]	inhibition at 10 µM ([3]; compounds at 10 μM) [%]	Quadrant (FIG. 5b) [1, 12]	Fibrin % cell toxicity (primary rat microglia [4]; [13]) [%]
CCCOc1ccc(C(=O)OCCN(CC)CC)cc1N [Proparacaine]	Q4	13	-6	1	0	–	–	–	–	–	–	–	–
CC(CCc1ccc(O)cc1)NCCc1ccc(O)c(O)c1 (stereo not shown) [Dobutamine]	–	–	–	–	0	Q4	−7	−29	1	–	–	–	–
Cn1c([N+](=O)[O-])cnc1COC(N)=O [Ronidazole]	Q4	20	31	1	0	–	–	–	–	–	–	–	–
CCOC(=O)C1=C(C)NC(C)=C(C(=O)OC)C1c1cccc(Cl)c1Cl (stereo not shown) [Felodipine]	–	–	–	–	0	Q4	–	–	1	14	2	–	–
CCOC(=O)/C=C(C)/C=C/C=C(C)/C=C/c1c(C)cc(OC)c(C)c1C [Etretinate]	–	–	–	–	0	Q4	–	–	1	9	-19	–	–
CC(=O)NC(CCC(N)=O)C(=O)O (stereo not shown) [Aceglutamide]	–	–	–	–	0	–	–	–	–	20	36	Q4	1
CCN1CC(CCN2CCOCC2)C(c2ccccc2)(c2ccccc2)C1=O (stereo not shown) [Doxapram Hydrochloride]	–	–	–	–	0	Q4	–	–	0	9	-18	–	–
C=C[C@H]1CN2CC[C@H]1C[C@H]2[C@H](OC(=O)OCC)c1ccnc2ccc(OC)cc12 [Quinine Ethyl Carbonate]	Q4	-11	-21	0	0	–	–	–	–	–	–	–	–
Cc1ccc(/N=C/N(C)/C=N/c2ccc(C)cc2C)c(C)c1 [Amitraz]	–	–	–	–	0	–	–	–	–	9	-18	Q4	0
O=C(NCCCN1CCOCC1)c1ccc(Cl)cc1 [Eprobemide]	–	–	–	–	0	Q4	–	–	0	21	-24	–	–
O=C1Nc2ccc(Cl)cc2[C@@](C#CC2CC2)(C(F)(F)F)O1 [Efavirenz]	–	–	–	–	0	Q4	–	–	1	-5	-7	–	–
C[C@H]1[C@@H](O)O[C@@H]2O[C@@]3(C)CC[C@H]4[C@H](C)CC[C@@H]1[C@@]24OO3 [Artenimol]	–	–	–	–	0	–	–	–	–	11	-56	Q4	0
CN1CCN(c2c(F)cc3c(=O)c(C(=O)O)cn4c3c2SCC4)CC1 [Rufloxacin Hydrochloride]	Q4	21	-3	1	0	–	–	–	–	–	–	–	–
CN[C@@H]1[C@H](O[C@H]2[C@H](O[C@H]3[C@H](O)[C@@H](O)[C@H](NC(=N)N)[C@@H](O)[C@@H]3NC(=N)N)O[C@@H](C)[C@]2(O)CO)O[C@@H](CO)[C@H](O)[C@H]1O [Dihydrostreptomycin Sulfate]	–	–	–	–	0	Q4	–	–	1	12	-7	–	–

Reference: patent publication US20210330611A1, “THERAPY FOR NEUROLOGICAL DISEASES/DISORDERS” (priority 2020, published 2021)
